Reference: ChEMBL document CHEMBL4004803, “Syntheses and antibacterial activity of soluble 9-bromo substituted indolizinoquinoline-5,12-dione derivatives” (Eur J Med Chem, 2017)
Converted amounts (≈) assume the structure as drawn.

Legend:
Assay type in all cases: functional
Escherichia coli = assay: Antibacterial activity against Escherichia coli ATCC 25922 after 20 to 24 hrs by two-fold microdilution method
Streptococcus pneumoniae = assay: Antibacterial activity against Streptococcus pneumoniae ATCC 6305 after 20 to 24 hrs by two-fold microdilution method
[1] = tested on: Staphylococcus epidermidis; assay: Antibacterial activity against Staphylococcus epidermidis ATCC 12228 after 20 to 24 hrs by two-fold microdilution method
Streptococcus pyogenes = assay: Antibacterial activity against Streptococcus pyogenes ATCC 19615 after 20 to 24 hrs by two-fold microdilution method
Staphylococcus aureus [2] = assay: Antibacterial activity against […] Staphylococcus aureus ATCC 25923 after 20 to 24 hrs by two-fold microdilution method
[3] = tested on: Staphylococcus haemolyticus; assay: Antibacterial activity against Staphylococcus haemolyticus CICC 10373 after 20 to 24 hrs by two-fold microdilution method
Enterococcus faecalis = assay: Antibacterial activity against Enterococcus faecalis ATCC 29212 after 20 to 24 hrs by two-fold microdilution method
Staphylococcus aureus [4] = assay: Antibacterial activity against methicillin-resistant Staphylococcus aureus ATCC 43300 after 20 to 24 hrs by two-fold microdilution method

| SMILES | MIC (Escherichia coli) [µg/mL] | MIC (Streptococcus pneumoniae) [µg/mL] | MIC [1] [µg/mL] | MIC (Streptococcus pyogenes) [µg/mL] | MIC (Staphylococcus aureus [2]) [µg/mL] | MIC [3] [µg/mL] | MIC (Enterococcus faecalis) [µg/mL] | MIC (Staphylococcus aureus [4]) [µg/mL] |
| --- | --- | --- | --- | --- | --- | --- | --- | --- |
| CCOC(=O)c1c2c(n3cc(Br)ccc13)C(=O)c1ncccc1C2=O | > 16 | 4 (≈ 10 µM) | 0.063 (≈ 0.158 µM) | 4 (≈ 10 µM) | 0.063 (≈ 0.158 µM) | 0.125 (≈ 0.313 µM) | 0.016 (≈ 0.0401 µM) | 0.063 (≈ 0.158 µM) |
| CN(C)CCCCOC(=O)c1c2c(n3cc(Br)ccc13)C(=O)c1ncccc1C2=O | 1 (≈ 2.13 µM) | 8 (≈ 17 µM) | 0.25 (≈ 0.532 µM) | 16 (≈ 34 µM) | 4 (≈ 8.5 µM) | 4 (≈ 8.5 µM) | 2 (≈ 4.25 µM) | 2 (≈ 4.25 µM) |
| CN(C)CCCOC(=O)c1c2c(n3cc(Br)ccc13)C(=O)c1ncccc1C2=O | 1 (≈ 2.19 µM) | 8 (≈ 17.5 µM) | 0.25 (≈ 0.548 µM) | 16 (≈ 35.1 µM) | 1 (≈ 2.19 µM) | 2 (≈ 4.38 µM) | 2 (≈ 4.38 µM) | 1 (≈ 2.19 µM) |
| CCOC(=O)c1c2c(n3cccc(Br)c13)C(=O)c1nccnc1C2=O | > 16 | – | – | – | 1 (≈ 2.5 µM) | – | – | – |
| CCOC(=O)c1c2c(n3cc(Br)ccc13)C(=O)c1nccnc1C2=O | 16 (≈ 40 µM) | – | – | – | 0.25 (≈ 0.625 µM) | – | – | – |
| O=C1c2cccnc2C(=O)c2c1c(C(=O)OCCCN1CCOCC1)c1ccc(Br)cn21 | 16 (≈ 32.1 µM) | 16 (≈ 32.1 µM) | 0.25 (≈ 0.502 µM) | 16 (≈ 32.1 µM) | 0.5 (≈ 1 µM) | 4 (≈ 8.03 µM) | 2 (≈ 4.01 µM) | 0.5 (≈ 1 µM) |
| COP(=O)(CCOC(=O)c1c2c(n3cc(Br)ccc13)C(=O)c1ncccc1C2=O)OC | 16 (≈ 31.5 µM) | 16 (≈ 31.5 µM) | 0.5 (≈ 0.986 µM) | 16 (≈ 31.5 µM) | 1 (≈ 1.97 µM) | 1 (≈ 1.97 µM) | 0.5 (≈ 0.986 µM) | 1 (≈ 1.97 µM) |
| CN(C)CCCCCCOC(=O)c1c2c(n3cc(Br)ccc13)C(=O)c1ncccc1C2=O | 2 (≈ 4.01 µM) | 2 (≈ 4.01 µM) | ≤ 0.0078 | 8 (≈ 16.1 µM) | 0.25 (≈ 0.502 µM) | 0.5 (≈ 1 µM) | 0.5 (≈ 1 µM) | 0.25 (≈ 0.502 µM) |
| O=C1c2cccnc2C(=O)c2c1c(C(=O)OCCCO)c1ccc(Br)cn21 | 8 (≈ 18.6 µM) | 8 (≈ 18.6 µM) | 0.125 (≈ 0.291 µM) | 8 (≈ 18.6 µM) | 0.125 (≈ 0.291 µM) | 0.25 (≈ 0.582 µM) | 0.25 (≈ 0.582 µM) | 0.25 (≈ 0.582 µM) |
| O=C1c2cccnc2C(=O)c2c1c(C(=O)OCCCN1CCCC1)c1ccc(Br)cn21 | 0.5 (≈ 1.04 µM) | 4 (≈ 8.29 µM) | 0.25 (≈ 0.518 µM) | 8 (≈ 16.6 µM) | 2 (≈ 4.15 µM) | 2 (≈ 4.15 µM) | 1 (≈ 2.07 µM) | 1 (≈ 2.07 µM) |
| CN1CCN(CCCCOC(=O)c2c3c(n4cc(Br)ccc24)C(=O)c2ncccc2C3=O)CC1 | 8 (≈ 15.2 µM) | 2 (≈ 3.81 µM) | 0.031 (≈ 0.059 µM) | 8 (≈ 15.2 µM) | 0.25 (≈ 0.476 µM) | 1 (≈ 1.9 µM) | 0.5 (≈ 0.952 µM) | 0.5 (≈ 0.952 µM) |
| O=C1c2cccnc2C(=O)c2c1c(C(=O)OCCN1CCCC1)c1ccc(Br)cn21 | 0.5 (≈ 1.07 µM) | 4 (≈ 8.54 µM) | 0.031 (≈ 0.0662 µM) | 8 (≈ 17.1 µM) | 0.5 (≈ 1.07 µM) | 0.5 (≈ 1.07 µM) | 0.5 (≈ 1.07 µM) | 0.5 (≈ 1.07 µM) |
| CN1CCN(CCCCCOC(=O)c2c3c(n4cc(Br)ccc24)C(=O)c2ncccc2C3=O)CC1 | 2 (≈ 3.71 µM) | 2 (≈ 3.71 µM) | ≤ 0.0078 | 8 (≈ 14.8 µM) | 0.25 (≈ 0.463 µM) | 0.25 (≈ 0.463 µM) | 0.25 (≈ 0.463 µM) | 0.25 (≈ 0.463 µM) |
| O=C1c2cccnc2C(=O)c2c1c(C(=O)OCCCCCCN1CCCC1)c1ccc(Br)cn21 | 1 (≈ 1.91 µM) | 1 (≈ 1.91 µM) | ≤ 0.0078 | 4 (≈ 7.63 µM) | 0.5 (≈ 0.953 µM) | 2 (≈ 3.81 µM) | 0.5 (≈ 0.953 µM) | 0.5 (≈ 0.953 µM) |
| O=C1c2cccnc2C(=O)c2c1c(C(=O)OCCCCN1CCCCC1)c1ccc(Br)cn21 | 4 (≈ 7.84 µM) | 4 (≈ 7.84 µM) | 0.125 (≈ 0.245 µM) | 16 (≈ 31.3 µM) | 1 (≈ 1.96 µM) | 2 (≈ 3.92 µM) | 1 (≈ 1.96 µM) | 1 (≈ 1.96 µM) |
| O=C1c2cccnc2C(=O)c2c1c(C(=O)OCCCN1CCCCC1)c1ccc(Br)cn21 | 8 (≈ 16.1 µM) | 16 (≈ 32.2 µM) | 0.5 (≈ 1.01 µM) | 16 (≈ 32.2 µM) | 4 (≈ 8.06 µM) | 2 (≈ 4.03 µM) | 4 (≈ 8.06 µM) | 4 (≈ 8.06 µM) |
| O=C1c2cccnc2C(=O)c2c1c(C(=O)OCCCCCN1CCCCC1)c1ccc(Br)cn21 | 4 (≈ 7.63 µM) | 4 (≈ 7.63 µM) | 0.125 (≈ 0.238 µM) | 8 (≈ 15.3 µM) | 1 (≈ 1.91 µM) | 1 (≈ 1.91 µM) | 0.5 (≈ 0.953 µM) | 2 (≈ 3.81 µM) |
| O=C1c2cccnc2C(=O)c2c1c(C(=O)OCC(O)CO)c1ccc(Br)cn21 (stereo not given) | 4 (≈ 8.98 µM) | 16 (≈ 35.9 µM) | 1 (≈ 2.25 µM) | 16 (≈ 35.9 µM) | 2 (≈ 4.49 µM) | 4 (≈ 8.98 µM) | > 16 | 2 (≈ 4.49 µM) |
| O=C1c2cccnc2C(=O)c2c1c(C(=O)OCCO)c1ccc(Br)cn21 | 4 (≈ 9.63 µM) | 8 (≈ 19.3 µM) | 0.125 (≈ 0.301 µM) | 8 (≈ 19.3 µM) | 0.125 (≈ 0.301 µM) | 0.5 (≈ 1.2 µM) | 0.25 (≈ 0.602 µM) | 0.125 (≈ 0.301 µM) |
| CN1CCN(CCCOC(=O)c2c3c(n4cc(Br)ccc24)C(=O)c2ncccc2C3=O)CC1 | > 16 | 16 (≈ 31.3 µM) | 4 (≈ 7.82 µM) | 16 (≈ 31.3 µM) | 8 (≈ 15.6 µM) | 16 (≈ 31.3 µM) | > 16 | 4 (≈ 7.82 µM) |
| O=C1c2cccnc2C(=O)c2c1c(C(=O)OCCCCN1CCCC1)c1ccc(Br)cn21 | 1 (≈ 2.01 µM) | 4 (≈ 8.06 µM) | 0.125 (≈ 0.252 µM) | 8 (≈ 16.1 µM) | 2 (≈ 4.03 µM) | 4 (≈ 8.06 µM) | 1 (≈ 2.01 µM) | 1 (≈ 2.01 µM) |
| CN1CCN(CCOC(=O)c2c3c(n4cc(Br)ccc24)C(=O)c2ncccc2C3=O)CC1 | 1 (≈ 2.01 µM) | 16 (≈ 32.2 µM) | 1 (≈ 2.01 µM) | 8 (≈ 16.1 µM) | 2 (≈ 4.02 µM) | 8 (≈ 16.1 µM) | 8 (≈ 16.1 µM) | 2 (≈ 4.02 µM) |
| O=C1c2cccnc2C(=O)c2c1c(C(=O)OCCCCCN1CCCC1)c1ccc(Br)cn21 | 2 (≈ 3.92 µM) | 1 (≈ 1.96 µM) | ≤ 0.0078 | 8 (≈ 15.7 µM) | 0.5 (≈ 0.98 µM) | 0.25 (≈ 0.49 µM) | 0.5 (≈ 0.98 µM) | 0.5 (≈ 0.98 µM) |
| CC1(C)S[C@@H]2[C@H](NC(=O)Cc3ccccc3)C(=O)N2[C@H]1C(=O)O [PENICILLIN G] | > 16 | ≤ 0.0078 | 8 (≈ 23.9 µM) | ≤ 0.0078 | 0.063 (≈ 0.188 µM) | ≤ 0.0078 | 1 (≈ 2.99 µM) | > 16 |
